Results on 14 compounds are retold here after US8933015B2, “Macrocyclic inhibitors of flaviviridae viruses” (Gilead Sciences, Inc., priority 2010, dated 2015).

For data set [1] the following is noted: rcm bond, 22-membered ring.
For data set [2], the target named is cyclophilin A (Homo sapiens, UniProt P62937). The data set can be described thus: Cyclophilin A TR-FRET competitive binding assay. Conditions: inhibition of cyclophilin binding; 5 nM CypA, 150 nM CsA-Cy5. As for the experimental part:
Cyclophilin A TR-FRET Competitive Binding Assay
Inhibitor potency was measured using a competitive binding assay with a time-resolved fluorescence resonance energy transfer (TR-FRET) readout. […] The total volume of the assay solution was 100 μL. […] An IC50 value was calculated using a four-parameter logistic fit.
On the technique in general: Time-resolved FRET reads energy transfer from a long-lived donor to a nearby acceptor.

Data set [3] has as its system human hepatoma Huh-7 cell line harboring a HCV replicon. The data set can be described thus: HCV replicon assay (inhibition of viral replication, luciferase). The data set is classed as cell-based. The conditions noted are these: Hepatitis C virus; for EC50: Huh-7, 72 h; for inhibition at 1 µM: Huh-7, read-out: % inhibition at 1 μM. As for the experimental part: The anti-HCV activity of the compounds of this invention was tested in a human hepatoma Huh-7 cell line harboring a HCV replicon. The assay comprised the following steps:
Step 1: Compound Preparation and Serial Dilution
Serial dilution was performed in 100% DMSO in a 384-well plate. A solution containing a compound at 225-fold concentration of the starting final serial dilution concentration was prepared in 100% DMSO and 15 uL added to the pre-specified wells in column 3 or 13 of a polypropylene 384-well plate. The rest of the 384-well plate was filled with 10 uL 100% DMSO except for columns 23 and 24, where 10 uL of 500 uM a HCV protease inhibitor (ITMN-191) in 100% DMSO was added. […] The plate was then placed on a Biomek FX Workstation to start the serial dilution. The serial dilution was performed for ten cycles of 3-fold dilution from column 3 to 12 or from column 13 to 22.
Step 2: Cell Culture Plate Preparation and Compound Addition
To each well of a black polypropylene 384-well plate, 90 μL of cell media containing 1600 suspended Huh-7 HCV replicon cells was added with a Biotek uFlow Workstation. A volume of 0.4 μL of the compound solution was transferred from the serial dilution plate to the cell culture plate on a Biomek FX Workstation. The DMSO concentration in the final assay condition was 0.44%. The plates were incubated for 3 days at 37° C. with 5% CO2 and 85% humidity.
Step 3: Detection of Cytotoxicity and Inhibition of Viral Replication
b) Assessment of inhibition of viral replication: The calcein-PBS solution in the 384-well cell culture plate was aspirated with a Biotek EL405 plate-washer. A volume of 20 μL of Dual-Glo luciferase buffer (Promega, Dual-Glo Luciferase Assay Reagent, cat. #E298B) was added to each well of the plate with a Biotek uFlow Workstation. The plate was incubated for 10 minutes at room temperature. A volume of 20 μL of a solution containing 1:100 mixture of Dual-Glo Stop & Glo substrate (Promega, Dual-Glo Luciferase Assay Reagent, cat. #E313B) and Dual-Glo Stop & Glo buffer (Promega, Dual-Glo Luciferase Assay Reagent, cat. #E314B) was then added to each well of the plate with a Biotek uFlow Workstation. The plate was incubated at room temperature for 10 minutes before the luminescence signal was measured with a Perkin Elmer Envision Plate Reader.
The percent cytotoxicity was determined by calcein AM conversion to fluorescent product. The average fluorescent signal from the DMSO control wells were defined as 100% nontoxic. The individual fluorescent signal from testing compound treated well was divided by the average signal from DMSO control wells and then multiplied by 100% to get the percent viability. The percent anti-HCV replication activity was determined by the luminescence signal from the testing well compared to DMSO controls wells. The background signal was determined by the average luminescence signal from the HCV protease inhibitor treated wells and was subtracted from the signal from the testing wells as well as the DMSO control wells.
Where b is Hill's coefficient. See, for reference, Hill, A. V., The Possible Effects of the Aggregation of the Molecules of Hemoglobin on its Dissociation Curves, J. Physiol. 40: iv-vii. (1910).
% inhibition values at a specific concentration, for example 2 μM, can also be derived from the formula above.
The EC50's are presented as a % inhibition.
(In general: Replicon systems follow genome replication, usually without infectious particles.)

Where two headings read alike, the source gives them in different places. Bounds are passed on as bounds.

cyclophilin A, sequence (P62937 whole entry, species assumed): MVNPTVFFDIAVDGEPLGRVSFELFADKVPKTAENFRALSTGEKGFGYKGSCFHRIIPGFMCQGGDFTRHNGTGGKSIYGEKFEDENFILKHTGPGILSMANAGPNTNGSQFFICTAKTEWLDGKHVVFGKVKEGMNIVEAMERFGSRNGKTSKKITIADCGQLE

As for `CO[C@@H]1CC/C=C/CCCCOC(=O)[C@@H]2CCCN(N2)C(=O)[C@H](Cc2cccc(O[Si](C)(C)C(C)(C)C)c2)NC(=O)[C@H](C(C)C)NC(=O)[C@@H]1C`, the ring closure, isolated yield in data set [1] (from C=CCCCCOC(=O)[C@@H]1CCCN(C(=O)[C@H](Cc2cccc(O[Si](C)(C)C(C)(C)C)c2)NC(=O)[C@@H](NC(=O)[C@H](C)[C@@H](CCC=C)OC)C(C)C)N1, Grubbs II, DCE, 3.02 mM, 83.0 °C, 3.0 h) was 48%.

The compound `CO[C@@H]1CC/C=C/c2ccnc(c2)COC(=O)[C@@H]2CCCN(N2)C(=O)[C@H](Cc2cccc(O[Si](C)(C)C(C)(C)C)c2)NC(=O)[C@H](C(C)C)NC(=O)[C@@H]1C` displayed a ring closure, isolated yield in data set [1] (from C=CCC[C@@H](OC)[C@@H](C)C(=O)N[C@H](C(=O)N[C@@H](Cc1cccc(O[Si](C)(C)C(C)(C)C)c1)C(=O)N1CCC[C@@H](C(=O)OCc2cc(C=C)ccn2)N1)C(C)C, Hoveyda-Grubbs II, DCE, 2.69 mM, 80.0 °C, 3.0 h) of 61%.

With `CO[C@@H]1CCC=Cc2ccc3c(c2)[C@@H](CC3)OC(=O)[C@@H]2CCCN(N2)C(=O)[C@H](Cc2cccc(O[Si](C)(C)C(C)(C)C)c2)NC(=O)[C@H](C(C)C)NC(=O)[C@@H]1C`, in data set [1] (from C=CCC[C@@H](OC)[C@@H](C)C(=O)N[C@H](C(=O)N[C@@H](Cc1cccc(O[Si](C)(C)C(C)(C)C)c1)C(=O)N1CCC[C@@H](C(=O)O[C@@H]2CCc3ccc(C=C)cc32)N1)C(C)C, Hoveyda-Grubbs II (two portions), DCE, 3.16 mM, 83.0 °C, 6.0 h, 2 steps), the ring closure, isolated yield worked out at 14%.

In the case of `CO[C@@H]1CCC=Cc2cccc(c2)COC(=O)[C@@H]2CCCN(N2)C(=O)[C@H](Cc2cccc(O[Si](C)(C)C(C)(C)C)c2)NC(=O)[C@H](C(C)C)NC(=O)[C@@H]1C`, the ring closure, isolated yield in data set [1] (from C=CCC[C@@H](OC)[C@@H](C)C(=O)N[C@H](C(=O)N[C@@H](Cc1cccc(O[Si](C)(C)C(C)(C)C)c1)C(=O)N1CCC[C@@H](C(=O)OCc2cccc(C=C)c2)N1)C(C)C, Grubbs I, DCM, 3.0 mM, 40.0 °C, 16.0 h) came to 75%.

In data set [1] (from C=CCC[C@@H](OC)[C@@H](C)C(=O)N[C@H](C(=O)N[C@@H](Cc1cccc(O[Si](C)(C)C(C)(C)C)c1)C(=O)N1CCC[C@@H](C(=O)N[C@H](C)c2cccc(C=C)c2)N1)C(C)C, Hoveyda-Grubbs II, DCE, 2.59 mM, 80.0 °C, 3.0 h), `CO[C@@H]1CCC=Cc2cccc(c2)[C@@H](C)NC(=O)[C@@H]2CCCN(N2)C(=O)[C@H](Cc2cccc(O[Si](C)(C)C(C)(C)C)c2)NC(=O)[C@H](C(C)C)NC(=O)[C@@H]1C` had a ring closure, isolated yield of 22%.

Consider `CO[C@@H]1[C@@H](C)[C@@H](OC)C=CC=CC[C@@H](C)OC(=O)[C@@H]2CCCN(N2)C(=O)[C@H](Cc2cccc(O[Si](C)(C)C(C)(C)C)c2)NC(=O)[C@H](C(C)C)NC(=O)[C@@H]1C`, for which the ring closure, isolated yield in data set [1] (from C=C/C=C\[C@H](OC)[C@H](C)[C@@H](OC)[C@@H](C)C(=O)N[C@H](C(=O)N[C@@H](Cc1cccc(O[Si](C)(C)C(C)(C)C)c1)C(=O)N1CCC[C@@H](C(=O)O[C@H](C)CC=C)N1)C(C)C, Grubbs I (two portions), DCM, 2.0 mM, 40.0 °C, 42.0 h) stood at 42%.

Take `COc1ccc(C[C@@H]2NC(=O)[C@H](C)[C@H](OC)[C@@H](C)[C@@H](OC)C=CC=CCCOC(=O)[C@@H]3CCCN(N3)C(=O)[C@H](Cc3cccc(O[Si](C)(C)C(C)(C)C)c3)NC2=O)cc1`: in data set [1] (from C=C/C=C\[C@H](OC)[C@H](C)[C@@H](OC)[C@@H](C)C(=O)N[C@@H](Cc1ccc(OC)cc1)C(=O)N[C@@H](Cc1cccc(O[Si](C)(C)C(C)(C)C)c1)C(=O)N1CCC[C@@H](C(=O)OCCC=C)N1, Grubbs I, DCM, 2.52 mM, 40.0 °C, 24.0 h), the ring closure, isolated yield was found to be 34%.

As usually defined, the IC50 is the point on the concentration scale where inhibition reaches its midpoint. One may read the EC50 as the concentration at which the effect is half-maximal. For orientation: inhibition means the change of the read-out against control, counted positive when it falls. With `CO[C@@H]1CCCCc2cccc(c2)[C@@H](C)OC(=O)[C@@H]2CCCN(N2)C(=O)[C@H](Cc2cccc(O)c2)NC(=O)[C@H](C(C)C)NC(=O)[C@@H]1C` [Compound 20, (2R,5S,11S,14S,17R,18R)-11-(3-Hydroxy-benzyl)-14-isopropyl-18-methoxy-2,17-dimethyl-3-oxa-9,12,15,28-tetraaza-tricyclo[21.3.1.1*5,9*]octacosa-1(27),23,25-triene-4,10,13,16-tetraone], the IC50 in data set [2] was < 100 nM. Besides, in data set [3], the EC50 is < 1000 nM and the inhibition at 1 µM stood at 92%.

In data set [2], `COc1ccc(C[C@@H]2NC(=O)[C@H](C)[C@H](OC)[C@@H](C)[C@@H](OC)/C=C/C=C/CCOC(=O)[C@@H]3CCCN(N3)C(=O)[C@H](Cc3cccc(O)c3)NC2=O)cc1` [Compound 21, (13 E,15E)-(3S,6S,9R,10R,11S,12S,21S)-3-(3-Hydroxy-benzyl)-10,12-dimethoxy-6-(4-methoxy-benzyl)-9,11-dimethyl-19-oxa-1,4,7,25-tetraazabicyclo[19.3.1]pentacosa-13,15-diene-2,5,8,20-tetraone] yielded an IC50 of 101 to 1000 nM. In addition, in data set [3], the EC50 was 1100 to 10000 nM and the inhibition at 1 µM is 18%.

As to `CO[C@@H]1CC/C=C/c2cccc(c2)[C@@H](C)OC(=O)[C@@H]2CCCN(N2)C(=O)[C@H](Cc2cccc(O)c2)NC(=O)[C@H](C(C)C)NC(=O)C1` [Compound 22, (E)-(2R,5S,11S,14S,18R)-11-(3-Hydroxy-benzyl)-14-isopropyl-18-methoxy-2-methyl-3-oxa-9,12,15,28-tetraaza-tricyclo[21.3.1.1*5,9*]octacosa-1(26),21,23(27),24-tetraene-4,10,13,16-tetraone], in data set [2], the IC50 was < 100 nM. Moreover, in data set [3], the EC50 is < 1000 nM and the inhibition at 1 µM came out at 70%.

In data set [2], `CO[C@@H]1CC/C=C/CCCCOC(=O)[C@@H]2CCCN(N2)C(=O)[C@H](Cc2cccc(O)c2)NC(=O)[C@H](C(C)C)NC(=O)[C@@H]1C` [Compound 23, (E)-(3S,6S,9R,10R,21S)-3-(3-Hydroxy-benzyl)-6-isopropyl-10-methoxy-9-methyl-19-oxa-1,4,7,25-tetraaza-bicyclo[19.3.1]pentacos-13-ene-2,5,8,20-tetraone] had an IC50 of 101 to 1000 nM. Moreover, in data set [3], the EC50 is < 1000 nM and the inhibition at 1 µM worked out at 41%.

Take `CCO[C@@H]1CC/C=C/c2cccc(c2)COC(=O)[C@@H]2CCCN(N2)C(=O)[C@H](Cc2cccc(O)c2)NC(=O)[C@H](C(C)C)NC(=O)[C@@H]1C` [Compound 24, (E)-(5S,11S,14S,17R,18R)-18-Ethoxy-11-(3-hydroxy-benzyl)-14-isopropyl-17-methyl-3-oxa-9,12,15,28-tetraaza-tricyclo[21.3.1.1*5,9*]octacosa-1(26),21,23(27),24-tetraene-4,10,13,16-tetraone]: the IC50 in data set [2] was < 100 nM. Further, in data set [3], the EC50 was < 1000 nM and the inhibition at 1 µM is 65%.

Consider `CO[C@@H]1[C@@H](C)[C@@H](OC)CCc2cccc(c2)CNC(=O)[C@@H]2CCCN(N2)C(=O)[C@H](Cc2cccc(O)c2)NC(=O)[C@H](C(C)C)NC(=O)[C@@H]1C` [Compound 25, (5S,11S,14S,17R,18R,19S,20S)-11-(3-Hydroxy-benzyl)-14-isopropyl-18,20-dimethoxy-17,19-dimethyl-3,9,12,15,28-pentaaza-tricyclo[21.3.1.1*5,9*]octacosa-1(27),23,25-triene-4,10,13,16-tetraone], for which, in data set [2], the half-inhibitory concentration (IC50) is 101 to 1000 nM. Moreover, in data set [3], the EC50 was 1100 to 10000 nM and the inhibition at 1 µM came to 34%.

On to `CO[C@@H]1CC/C=C/C2=CC=C(COC(=O)[C@@H]3CCCN(N3)C(=O)[C@H](Cc3cccc(O)c3)NC(=O)[C@H](C(C)C)NC(=O)[C@@H]1C)S2` [Compound 26, (E)-(1S,13R,14R,17S,20S)-20-(3-Hydroxy-benzyl)-17-isopropyl-13-methoxy-14-methyl-3-oxa-27-thia-16,19,22,26-tetraaza-tricyclo[20.3.1.1*5,8*]heptacosa-5,7,9-triene-2,15,18,21-tetraone], for which the IC50 in data set [2] fell in the range of 101 to 1000 nM. Besides, in data set [3], the EC50 was 10100 to 100000 nM and the inhibition at 1 µM was 9%.
